Experiments:
pigweed, palmer [1] = assay: Test A postemergence; type: in vivo, Amaranthus palmeri; settings: postemergence, 10 days
Procedure, shortened: (§1)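 Plants were grown in loam and sand and treated preemergence or postemergence (one- to two-leaf stage, 2–10 cm) with compound in solvent plus surfactant. Response was scored against untreated controls after 10 greenhouse days, where 0 means no effect and 100 complete control.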

corn [2] = assay: Test A postemergence; type: in vivo, Zea mays; settings: postemergence, 10 days
Procedure, shortened: as §1

barnyardgrass [3] = assay: Test A preemergence; type: in vivo, Echinochloa crusgalli; settings: visual injury after 10 days, 0 to 100 scale, 0 is no effect, 100 is complete control
Procedure, shortened: as §1

sedge, umbrella = assay: Test B flooded paddy test; type: in vivo, Cyperus difformis; settings: 250 g ai/ha, Flood, 13 days, 0 to 100 scale (0 no effect, 100 complete control)
Procedure, shortened: (§2)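 Species grown to 2-leaf stage; pots flooded 3 cm above soil and compound applied directly to paddy water, depth maintained throughout. After 13 days in greenhouse, plants visually rated against controls on 0–100 scale (0 no effect, 100 complete control); dash means no result.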

barnyardgrass [4] = assay: Test A postemergence; type: in vivo, Echinochloa crusgalli; settings: postemergence, 10 days
Procedure, shortened: as §1

corn [5] = assay: Test A preemergence; type: in vivo, Zea mays; settings: visual injury after 10 days, 0 to 100 scale, 0 is no effect, 100 is complete control
Procedure, shortened: as §1

foxtail, giant [6] = assay: Test A preemergence; type: in vivo, Setaria faberi; settings: visual injury after 10 days, 0 to 100 scale, 0 is no effect, 100 is complete control
Procedure, shortened: as §1

wheat [7] = assay: Test A preemergence; type: in vivo, Triticum aestivum; settings: visual injury after 10 days, 0 to 100 scale, 0 is no effect, 100 is complete control
Procedure, shortened: as §1

ragweed [8] = assay: Test A postemergence; type: in vivo, Ambrosia artemisiifolia; settings: postemergence, 10 days
Procedure, shortened: as §1

oat, wild [9] = assay: Test A preemergence; type: in vivo, Avena fatua; settings: visual injury after 10 days, 0 to 100 scale, 0 is no effect, 100 is complete control
Procedure, shortened: as §1

ragweed [10] = assay: Test A preemergence; type: in vivo, Ambrosia artemisiifolia; settings: visual injury after 10 days, 0 to 100 scale, 0 is no effect, 100 is complete control
Procedure, shortened: as §1

kochia [11] = assay: Test A postemergence; type: in vivo, Bassia scoparia; settings: postemergence, 10 days
Procedure, shortened: as §1

ryegrass, Italian [12] = assay: Test A postemergence; type: in vivo, Lolium multiflorum; settings: postemergence, 10 days
Procedure, shortened: as §1

galium = assay: Test A postemergence; type: in vivo, Galium aparine; settings: postemergence, 10 days
Procedure, shortened: as §1

soybean [13] = assay: Test A preemergence; type: in vivo, Glycine max; settings: visual injury after 10 days, 0 to 100 scale, 0 is no effect, 100 is complete control
Procedure, shortened: as §1

kochia [14] = assay: Test A preemergence; type: in vivo, Bassia scoparia; settings: visual injury after 10 days, 0 to 100 scale, 0 is no effect, 100 is complete control
Procedure, shortened: as §1

oat, wild [15] = assay: Test A postemergence; type: in vivo, Avena fatua; settings: postemergence, 10 days
Procedure, shortened: as §1

barnyardgrass [16] = assay: Test B flooded paddy test; type: in vivo, Echinochloa crus-galli; settings: 250 g ai/ha, Flood, 13 days, 0 to 100 scale (0 no effect, 100 complete control)
Procedure, shortened: as §2

ducksalad = assay: Test B flooded paddy test; type: in vivo, Heteranthera limosa; settings: 250 g ai/ha, Flood, 13 days, 0 to 100 scale (0 no effect, 100 complete control)
Procedure, shortened: as §2

blackgrass [17] = assay: Test A preemergence; type: in vivo, Alopecurus myosuroides; settings: visual injury after 10 days, 0 to 100 scale, 0 is no effect, 100 is complete control
Procedure, shortened: as §1

horseweed = assay: Test A postemergence; type: in vivo, Erigeron canadensis; settings: postemergence, 10 days
Procedure, shortened: as §1

wheat [18] = assay: Test A postemergence; type: in vivo, Triticum aestivum; settings: postemergence, 10 days
Procedure, shortened: as §1

soybean [19] = assay: Test A postemergence; type: in vivo, Glycine max; settings: postemergence, 10 days
Procedure, shortened: as §1

pigweed, palmer [20] = assay: Test A preemergence; type: in vivo, Amaranthus palmeri; settings: visual injury after 10 days, 0 to 100 scale, 0 is no effect, 100 is complete control
Procedure, shortened: as §1

rice = assay: Test B flooded paddy test; type: in vivo, Oryza sativa; settings: 250 g ai/ha, Flood, 13 days, 0 to 100 scale (0 no effect, 100 complete control)
Procedure, shortened: as §2

blackgrass [21] = assay: Test A postemergence; type: in vivo, Alopecurus myosuroides; settings: postemergence, 10 days
Procedure, shortened: as §1

ryegrass, Italian [22] = assay: Test A preemergence; type: in vivo, Lolium multiflorum; settings: visual injury after 10 days, 0 to 100 scale, 0 is no effect, 100 is complete control
Procedure, shortened: as §1

foxtail, giant [23] = assay: Test A postemergence; type: in vivo, Setaria faberi; settings: postemergence, 10 days
Procedure, shortened: as §1

[24] = 125 g ai/ha, 0 to 100 scale, 0 no effect, 100 complete control
[25] = 500 g ai/ha, visual injury, 0 to 100 scale (0 no effect, 100 complete control)

COCCc1ncn(-c2cccc(C(=O)N3C[C@H](C)Oc4c(C)cccc43)c2)n1 [Compound 113]
Pigweed, Palmer plant response rating (pigweed, palmer [1]; [24]): 30
Plant response rating, Pigweed, Palmer (pigweed, palmer [1]; [25]): 80
Corn plant response rating (corn [2]; [24]): 90
Plant response rating, Corn (corn [2]; [25]): 90
Plant response rating, Barnyardgrass (barnyardgrass [3]; 125 g ai/ha): 90
Plant response rating, Barnyardgrass (barnyardgrass [3]; 500 g ai/ha): 100
Plant response rating, Sedge, Umbrella (sedge, umbrella): 80
Barnyardgrass plant response rating (barnyardgrass [4]; [24]): 60
Plant response rating, Barnyardgrass (barnyardgrass [4]; [25]): 90
Plant response rating, Corn (corn [5]; 125 g ai/ha): 20
Plant response rating, Corn (corn [5]; 500 g ai/ha): 90
Plant response rating, Foxtail, Giant (foxtail, giant [6]; 125 g ai/ha): 100
Plant response rating, Foxtail, Giant (foxtail, giant [6]; 500 g ai/ha): 100
Plant response rating, Wheat (wheat [7]; 125 g ai/ha): 80
Plant response rating, Wheat (wheat [7]; 500 g ai/ha): 90
Ragweed plant response rating (ragweed [8]; [24]): 50
Plant response rating, Ragweed (ragweed [8]; [25]): 50
Plant response rating, Oat, Wild (oat, wild [9]; 125 g ai/ha): 80
Plant response rating, Oat, Wild (oat, wild [9]; 500 g ai/ha): 90
Plant response rating, Ragweed (ragweed [10]; 125 g ai/ha): 0
Plant response rating, Ragweed (ragweed [10]; 500 g ai/ha): 70
Kochia plant response rating (kochia [11]; [24]): 40
Plant response rating, Kochia (kochia [11]; [25]): 90
Ryegrass, Italian plant response rating (ryegrass, Italian [12]; [24]): 50
Plant response rating, Ryegrass, Italian (ryegrass, Italian [12]; [25]): 100
Galium plant response rating (galium; [24]): 90
Plant response rating, Galium (galium; [25]): 100
Plant response rating, Soybean (soybean [13]; 125 g ai/ha): 30
Plant response rating, Soybean (soybean [13]; 500 g ai/ha): 80
Plant response rating, Kochia (kochia [14]; 125 g ai/ha): 60
Plant response rating, Kochia (kochia [14]; 500 g ai/ha): 100
Oat, Wild plant response rating (oat, wild [15]; [24]): 70
Plant response rating, Oat, Wild (oat, wild [15]; [25]): 80
Plant response rating, Barnyardgrass (barnyardgrass [16]): 45
Plant response rating, Ducksalad (ducksalad): 65
Plant response rating, Blackgrass (blackgrass [17]; 125 g ai/ha): 70
Plant response rating, Blackgrass (blackgrass [17]; 500 g ai/ha): 90
Horseweed plant response rating (horseweed; [24]): 10
Plant response rating, Horseweed (horseweed; [25]): 30
Wheat plant response rating (wheat [18]; [24]): 50
Plant response rating, Wheat (wheat [18]; [25]): 80
Soybean plant response rating (soybean [19]; [24]): 100
Plant response rating, Soybean (soybean [19]; [25]): 100
Plant response rating, Pigweed, Palmer (pigweed, palmer [20]; 125 g ai/ha): 90
Plant response rating, Pigweed, Palmer (pigweed, palmer [20]; 500 g ai/ha): 100
Plant response rating, Rice (rice): 0
Blackgrass plant response rating (blackgrass [21]; [24]): 80
Plant response rating, Blackgrass (blackgrass [21]; [25]): 90
Plant response rating, Ryegrass, Italian (ryegrass, Italian [22]; 125 g ai/ha): 90
Plant response rating, Ryegrass, Italian (ryegrass, Italian [22]; 500 g ai/ha): 100
Foxtail, Giant plant response rating (foxtail, giant [23]; [24]): 60
Plant response rating, Foxtail, Giant (foxtail, giant [23]; [25]): 90

Source: patent publication US20260262643A1, “HERBICIDAL BENZOXAZINES” (FMC CORPORATION, priority 2022, published 2026)
